# From patent US20180353524A1, “CANCER TREATMENT USING 2-DEOXY-2-FLUORO-L-FUCOSE IN COMBINATION WITH A CHECKPOINT INHIBITOR” (SEATTLE GENETICS, INC., priority 2015, published 2018)
# System: CMV reactive human PMBCs
# Assay: In vitro 2FF and anti-PD1 antibody combination in human PBMCs (IFNγ, IL12p70)
# Conditions: 1 μg/mL anti-PD1 (Pembrolizumab) added to co-culture of 2FF matured T-cells, DCs and CMV antigen
# Method: CMV reactive human PMBCs from a CMV positive donor (Astarte™ Biologics) were thawed, plated into a 6-well plate and cultured overnight in DC media (30% DMEM 70% X-vivo+2 mM glutamax+10% ATB serum+1% PS). The following day the supernatant was collected to isolate T-cells and the adhering cells were washed in media and then replenished with 2 mL media supplemented with IL4 (100 ng/μL) and GMCSF (200 ng/μL) per well to differentiate and proliferate the adhering monocytes into DCs. The plate was incubated for 4-5 days and then cells were moved into a T25 flask. Each time the cells were passaged (every 2-3 days) new cytokines were given. The T-cells in the supernatant were isolated using StemSep human T-cell enrichment kit (Stemcell technologies). The T-cells were then resuspended in T-cell media (RPMI+10% Fetal calf serum, 1% PS) and spilt into two T25 flasks (with or without 100-200 μM 2FF). CD3CD28 antibody coated beads (Miltenyi Biotec) (20 μL/flask) were added to activate the T-cells. After 24 h IL2 was added (100 ng/μL). Each time the cells were passaged new IL2 and 2FF were added. […]
# IFNγ and IL12p70 in the supernatants from 5 day co-cultures were measured using a Lumenix assay and the concentration of each cytokine was calculated using an internal standard curve.
substance,measurement,value
"Pembrolizumab [anti-PD1, reference compound]","antigen specific response (IFNγ, IL12p70) of 2FF matured T-cells on addition of anti-PD1",further enhances the antigen specific response
